Laboratory results: patent publication US8232289B2, “Spiropiperidine compounds as ORL-1 receptor antagonists” (Eli Lilly and Company, priority 2009, dated 2012)
Marks after values point to notes of the source that are not given here.

Assays:
[1] = system: 129S6 wild type and nociceptin/ORL1 receptor knockout mice; test: mFST in wild type and ORL-1 knockout mice; type: in vivo
Source text: (§1) mFST is an established in vivo assay for antidepressant activity (Li et al. J Pharmacol Exp Ther. 319(1):254-9, 2006.). […] The mFST was used to evaluate potential antidepressant-like activity of novel nociceptin/ORL1 antagonists according to previously published methods (Li et al. J Pharmacol Exp Ther. 319(1):254-9, 2006.). Briefly, male NIH-Swiss mice (Harlan Sprague-Dawley, Indianapolis, Ind.) weighing between 25-30 g are used. Group housed animals are removed from the vivarium to the testing area in their own cages and allowed to adapt to the new environment for at least 1 hour before testing. Alternatively, male 129S6 wild type and nociceptin/ORL1 receptor knockout mice were used to confirm dependence of the response to compound was nociceptin/ORL1 receptor dependent. All compounds are prepared in 20% Captisol, 25 mM phosphate buffer, pH 2.0 on the day of use. Mice are placed in a cylinder (diameter: 10 cm; height: 25 cm) filled with 6 cm of water (22-25° C.) for 6 min. The duration of immobility during the last 4 min. of the 6 min. period of the test was scored. A mouse is recorded as immobile when floating motionless or making only those movements necessary to keep its head above water.
Yet further, these effects of reduced immobilization times are not observed when ORL-1 knockout mice, a strain of mice engineered to lack the ORL-1 receptor, are used, showing that the effect is indeed mediated by the ORL-1 receptor.

[2] = system: male NIH-Swiss mice; test: Forced-swim test in mice (mFST); type: in vivo
Source text: as §1

[3] = Rat hepatic microsomal glutathione trapping assay; type: in vitro ADME; conditions: hepatic microsomal homogenate, glutathione as nucleophile
Source text: Assuming that reactive metabolites may play a role in clinical IDRs, minimizing the potential for oxidative bioactivation has been proposed as a means of improving the overall safety profile of compounds containing structural features associated with such reactivity. (see Baillie, Thomas A., Approaches to the Assessment of Stable and Chemically Reactive Drug Metabolites in Early Clinical Trials, Chemical Research in Toxicology, vol 22(2) 2009.) To this end, representative compounds of the present invention and related compounds are screened using a rat hepatic microsomal trapping assay, using glutathione as an endogenous nucleophile, to understand the potential for oxidative bioactivation of the thienyl moiety. […] Of the compounds tested, those wherein R^2a and R^2b are fluoro are found to not show glutathione conjugate formation.

[4] = system: Male Sprague-Dawley rats; test: Rat dural plasma protein extravasation (PPE) model, oral dosing; type: in vivo; conditions: 1.0 mg/kg po
Experimental: All test compounds are prepared in a vehicle solution containing 20% Captisol in 25 mM phosphate buffer (pH 2.0). The positive control compound, sumatriptan, is dissolved in saline. Male Sprague-Dawley rats from Harlan Laboratories (250 to 350 g), that have been fasted overnight, are dosed with test compound, sumatriptan or vehicle by oral gavage (2 mL/kg). Fifty min. post-dose the rats are anesthetized with Nembutal (60 mg/kg, ip) and placed in a stereotaxic frame with the incisor bar set at −2.5 mm. Following a mid-line sagittal scalp incision, 2 pairs of bilateral holes were drilled through the skull (3.2 mm posteriorly, 1.8 and 3.8 mm laterally, all coordinates referenced to bregma). Pairs of stainless steel stimulating electrodes (Rhodes Medical Systems Inc), insulated except at the tips, are lowered through the holes in both hemispheres to a depth of 9.2 mm below the dura.
A solution of fluoroscein isothiocyanate (FITC) dye-labeled bovine serum albumin (BSA) (FITC-BSA) (20 mg/kg, iv), is injected into the femoral vein 2 minutes prior to electrical stimulation of the trigeminal ganglion to function as the marker for protein extravasation. Sixty minutes following dosing with test compound or vehicle, the left trigeminal ganglion is electrically stimulated for 5 minutes at a current intensity of 1.0 mA (5 Hz, 5 minutes duration).
Five minutes following stimulation, the rats are killed by exsanguination with 40 mL of saline which also rinses residual FITC/BSA out of the blood vessels. The top of the skull is removed to collect the dural membranes. The membrane samples are removed from both hemispheres, rinsed with water, and spread flat on microscope slides. The slides are dried for 15 minutes on a slide warmer and cover-slipped with a 70% glycerol/water solution.
A fluorescence microscope equipped with a grating monochromator and a spectrophotometer is used to quantify the amount of FITC-BSA dye in each dural sample. The microscope is equipped with a motorized stage interfaced with a personal computer. This facilitates the computer-controlled movement of the stage, with fluorescence measurements at 25 points (500 μm steps) on each dural sample. The extravasation induced by electrical stimulation of the trigeminal ganglion is an ipsilateral effect (that is occurs only on the side of the dura in which the trigeminal ganglion is stimulated). This allows the other (unstimulated) half of the dura to be used as a control. The extravasation ratio (that is the ratio of the amount of extravasation in the dura from the stimulated side compared to the unstimulated side) is calculated. Animals dosed with vehicle alone or an ineffective dose of the test compound have an extravasation ratio of approximately 2, while totally effective treatments result in a ratio of approximately 1.
Results are expressed as mean values with standard errors of the mean (±SEM). All statistical evaluations are conducting utilizing ANOVA followed by comparison to the control group by Dunnett's Method. Statistical significance is assumed when p<0.05. Statistical analyses are performed using JMP statistical analysis software (SAS Research Institute, version 6.0.2).

[5] = target: T1, cloned human ORL1/nociceptin receptors (Homo sapiens, UniProt P41146); test: Functional blockade of agonist-mediated G-protein activation, GTP-γ-[35S] binding; type: biochemical; conditions: stimulation with 300 nM nociceptin/OFQ; read-out: Kb for the ORL-1 receptor (antagonist affinity)
T1 construct: expressed in transfected cells
T1 sequence (P41146 whole entry): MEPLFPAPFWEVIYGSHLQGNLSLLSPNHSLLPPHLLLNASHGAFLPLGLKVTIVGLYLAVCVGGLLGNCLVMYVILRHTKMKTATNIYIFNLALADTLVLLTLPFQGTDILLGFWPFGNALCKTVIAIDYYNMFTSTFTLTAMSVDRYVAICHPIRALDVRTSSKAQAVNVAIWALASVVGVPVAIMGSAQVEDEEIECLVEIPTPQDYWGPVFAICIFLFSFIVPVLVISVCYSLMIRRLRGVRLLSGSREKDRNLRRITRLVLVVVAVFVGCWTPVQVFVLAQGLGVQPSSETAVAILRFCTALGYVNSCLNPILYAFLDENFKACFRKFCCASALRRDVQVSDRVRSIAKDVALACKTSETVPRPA
Source text: Agonist-mediated stimulation of G-protein coupled receptors results in the activation of membrane associated Gαβγ-protein heterotrimer complexes, and represents the first step in the transduction of extracellular signals to modification of intracellular pathways. The first step in activation of receptor-mediated activation of Gαβγ-proteins heterotrimer is the exchange of Gα subunit bound guanosine diphoshpate (GDP) for guanosine triphosphate (GTP). The binding of GTP to the Gα subunit causes dissociation of the heterotrimer subunits, Gβ and Gγ, resulting in the modulation of several intracellular signaling cascades. Measurement of receptor-mediated G-protein activation can be measured using the non-hydrolyzable radiolabeled analog of GTP, GTP-γ-[35S]. Utilizing this methodology, antagonist affinity (Kb) is measured in membranes expressing cloned human ORL1/nociceptin receptors using a GTP-γ-[35S] binding assay according to previously described protocols with minor modifications (DeLapp et al., J Pharmacol Exp Ther. 1999 May; 289(2):946-55; Ozaki et al., Eur J Pharmacol. 2000 Aug. 18; 402(1-2):45-53). Assays are conducted in a 200-μl volume with the following buffer composition: 100 mM NaCl, 20 mM HEPES, 5 mM MgCl2, 1 mM EDTA, 0.1% BSA, 3 μM GDP, 0.5 nM [^35S]GTPγS. ORL1 receptor membrane suspension is added at a concentration of 20 μg protein per well and receptor stimulation is achieved using 300 nM nociceptin/OFQ. Wheat germ agglutinin coated SPA beads (Amersham, Arlington Hts., IL) are added at 1 mg per well to detect membrane-bound [^35S]GTPγS. Plates are sealed and incubated for 2 hr. at room temperature. Plates are then placed at 4° C. overnight to allow the SPA beads to settle and then counted in a Wallac Microbeta. Specific [^35S]GTPγS binding is determined as the difference in CPM observed in the absence and presence of 10 μM unlabeled GTPγS. Data are plotted as the percent of specific [^35S]GTPγS bound. Curves are plotted as the percent of specific binding and IC50 values are determined using a sigmoidal dose response curve with variable slope. […]

[6] = system: wild type and ORL knockout mice; test: Blockade of fasting-induced hyperphagia in mice; type: in vivo
Source text: Blockade of fasting-induced hyperphagia in rodents is an accepted model for hyperphagic eating disorders. […] Mice are individually housed a minimum of 3 days prior to the onset of testing to eliminate any effects of stress due to the change from group to individual housing. Three mice/genotype are randomly assigned to each treatment group on the test day. Pre-fast body weight measurements are taken, and food is then removed from cages overnight. Mice are fasted for approximately 15 hr. The next morning, the mice are given one of three doses of drug or vehicle via oral gavage 30 min. prior to gaining access to food. Drugs are dissolved in 20% Captisol dissolved in 25 mM phosphate buffer, pH 2.0. Measurements of body weight are taken immediately prior to drug treatment or 24 hr. after access to food is restored. […] Measurements of food intake are recorded 1 hr following access to food, as indicated, by weight of food remaining at 1 hr. It should be noted that food intake measured is during the light phase, a time during which mice are typically at rest and not normally eating. Following initial testing, mice are rested for 1 week with access to unlimited chow.

CN(C)CCCN1c2ccccc2CCc2ccccc21 [Imiprimine, reference compound]
effect on immobilization time ([1]; ORL-1 knockout mice): reduce immobilization times in both the wild type and knockout mice to an equivalent degree
effect on immobilization time ([1]; wild type mice): reduce immobilization times in both the wild type and knockout mice to an equivalent degree
Immobilization Time ([2]; 15 mg/kg, positive control): 96* sec

CNCCC(Oc1ccc(C(F)(F)F)cc1)c1ccccc1 (stereo not drawn) [fluoxetine, reference compound]
Immobilization Time ([2]; 10 mg/Kg, alone): 168 s

Cc1nn(-c2c(F)cccc2C(N)=O)cc1CN1CCC2(CC1)OCCc1c2sc(F)c1F.O=C(O)C(O)C(O)C(=O)O [3-fluoro-2-[4-[(2,3-difluorospiro[4,5-dihydrothieno[2,3-c]pyran-7,4′-piperidine]-1′-yl)methyl]-3-methyl-pyrazol-1-yl]benzamide (L) Tartrate, reference compound]
Glutathione conjugate formation [3]: Yes

Cc1nn(-c2c(F)cccc2C(N)=O)cc1CN1CCC2(CC1)OCCc1cc(F)sc12.O=C(O)C(O)C(O)C(=O)O [3-fluoro-2-[4-[(2-fluorospiro[4,5-dihydrothieno[2,3-c]pyran-7,4′-piperidine]-1′-yl)methyl]-3-methyl-pyrazol-1-yl]benzamide (L) Tartrate, reference compound]
Glutathione conjugate formation [3]: Yes

COCc1cccnc1-n1cc(CN2CCC3(CC2)OCC(F)(F)c2cc(F)sc23)c(C)n1.O=C(O)C(O)C(O)C(=O)O [Example 10, 2,4,4-Trifluoro-1′-[[1-[3-(methoxymethyl)-2-pyridyl]-3-methyl-pyrazol-4-yl]methyl]spiro[5H-thieno[2,3-c]pyran-7,4′-piperidine] (L)-Tartrate]
Glutathione conjugate formation [3]: No

CNS(=O)(=O)Cc1ccc2[nH]cc(CCN(C)C)c2c1 [Sumatriptan, reference compound]
Extravasation Ratio (mean) [4]: 1.06*

Cc1nn(-c2ncccc2CO)cc1CN1CCC2(CC1)OCC(F)(F)c1cc(Cl)sc12 [Example 1, [2-[4-[(2-Chloro-4,4-difluoro-spiro[5H-thieno[2,3-c]pyran-7,4′-piperidine]-1′-yl)methyl]-3-methyl-pyrazol-1-yl]-3-pyridyl]methanol (L)-tartrate]
Kb [5]: 0.2 nM

Clc1cccc(N2CCNCC2)c1 [mCPP, meta-chlorophenylpiperazine, reference compound]
effect on fasting-induced hyperphagia ([6]; ORL-1 knockout mouse strain): significantly reduce fasting induced hyperphagia equally in both wild type mice and the ORL-1 knockout mouse strain
effect on fasting-induced hyperphagia ([6]; wild type mice, oral gavage 30 min. prior to food, food intake at 1 hr): significantly reduce fasting induced hyperphagia equally in both wild type mice and the ORL-1 knockout mouse strain

COCc1cccnc1-n1cc(CN2CCC3(CC2)OCCc2cc(Cl)sc23)c(C)n1.O=C(O)C(O)C(O)C(=O)O [Example 14, 2-Chloro-1′-[[1-[3-(methoxymethyl)-2-pyridyl]-3-methyl-pyrazol-4-yl]methyl]spiro[4,5-dihydrothieno[2,3-c]pyran-7,4′-piperidine] (L)-Tartrate]
Glutathione conjugate formation [3]: Yes
